Non-standard residues stand in square brackets, D forms with d. Residues, ends and D or L forms follow the SMILES beside them. *: point of attachment. Tyr(3-NO2) = N[C@@H](Cc1ccc(O)c([N+](=O)[O-])c1)C(=O)O; Benzoyl(2-COOH) = O=C(O)c1ccccc1C(=O)*; Tic = O=C(O)[C@@H]1Cc2ccccc2CN1; Cha = N[C@@H](CC1CCCCC1)C(=O)O; hLeu = CC(C)CC[C@H](N)C(=O)O; Nle = CCCC[C@H](N)C(=O)O; 2Abz = Nc1ccccc1C(=O)O; Piv = CC(C)(C)C(=O)*; Bz = O=C(c1ccccc1)*; Ahx = NCCCCCC(=O)O

One assay concerns the target T1, Der pI (Dermatophagoides pteronyssinus, UniProt P08176).
T1 construct: tissue SmithKline-Beecham, U.K (crude mite extract); host or cells: crude house dust mite extract
T1 sequence (P08176 99-320): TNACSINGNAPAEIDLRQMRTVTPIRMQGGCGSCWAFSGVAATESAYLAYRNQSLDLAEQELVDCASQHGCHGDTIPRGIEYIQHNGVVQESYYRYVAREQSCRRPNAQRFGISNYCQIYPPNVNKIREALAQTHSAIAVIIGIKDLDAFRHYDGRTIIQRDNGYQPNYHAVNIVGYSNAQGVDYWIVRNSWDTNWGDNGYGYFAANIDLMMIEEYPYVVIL
Description: Der pI substrate assay with FRET peptides (fluorescence, Km, kcat/Km). It is filed as biochemical, house dust mite. Also on record: key: NS-Not Substrate: Not hydrolysed by Der pI; NM-Substrate but not measured: Substrate for Der pI but not measured. As to conditions: purified Der pI; peptides SEQ ID Nos. 77-85. As to the method: (§1) Using the general techniques described above, the following compounds were prepared and assayed as potential substrates against Der pI purified as described above.
(§2) Each mixture of 20 compounds in the libraries of the apparatus described herein was screened at a concentration of 1.0 μM per compound in an assay against the cysteinyl protease Der pI.
(§3) Plate assays were carried out in 96 well plate format, using 0.1 ug of Der pI per 100 μL assay volume in each well and using 20 μM of the substrate. All assays were performed in Assay Buffer (AB; 50 mM potassium phosphate, pH 8.25 containing 1 mM ethylenediaminetetraacetic acid (EDTA) and 1 mM dithiothreitol (DTT). The Der pI enzyme is pre-activated by addition of DTT and this in incubated at room temperature for 5 min. prior to initiation of the assay. As an example for the screening methodology, each well contains a 5 μL of a 20 μM solution of the test compound in DMSO, 10 μL of a 200 μM aqueous solution of the substrate, 2, and 85 μL of Der pI in AB is added to initiate the reaction. Enzyme activity is monitored by fluorescence using 320 nm for excitation and 420 nm for the emission wavelengths using a Labsystems Fluroskan Ascent machine. Kinetic measurements were carried out using a Hitachi F-4500 Fluorescence Spectrophotometer.
Turning to Abz-Cmpi-Nle-Ser-Tyr(NO2)-Asp-NH2, the “substrate or not substrate for Der pI (symbols in Measured Km)” value (“substrate or not substrate for Der pI” for short) is “NS”.
The same measure, in the same setting: in the case of Abz-Deg-Ala-Nle-Ser-Tyr(NO2)-Asp-NH2 it was “NS”.
The same measure, in the same setting: as for “Abz-Val-(NMe)Ala-Nle-Ser-Tyr(NO2)-Asp-NH2”, the entry is “NS”.
The same measure, in the same setting: in the case of Abz-Val-Aib-Nle-Ser-Tyr(NO2)-Asp-NH2 it was “NS”; in that of “Abz-Val-Ala-(NMe)Nle-Ser-Tyr(NO2)-Asp-NH2”, “NS”; in that of Abz-Val-Ala-Aib-Ser-Tyr(NO2)-Asp-NH2, “NS”.
Turning to Abz-p.Aba-Nle-Ser-Tyr(NO2)-Asp-NH2, the “substrate or not substrate for Der pI” value is “NS”.
On the same count and under the same terms, in the case of Bz-Val-Ala-Statine-Ser-eAha-NH2 it was “NS”; in that of nBu-D.Ser-D.Nle-D.Ala-D.Val-p.Aba-NH2, “NS”.

The target of a further assay is T1, Der pI. The description is as above. It is filed as biochemical, house dust mite. Further details: key: NS indicates that the peptide was not hydrolysed by Der pI.; NM indicated that the peptide was a substrate for Der pI, but the Km was not measured.; NM^a indicates that the peptide was a substrate for Der pI, and its cleavage was followed by HPLC-MS showing hydrolysis to occur between-Nle-Ser-. As to conditions: purified Der pI; peptides SEQ ID Nos. 1-76. As to the method:
as §1, §2, §3
For `CCCC[C@H](NC(=O)[C@H](C)NC(=O)[C@@H](NC(=O)c1ccccc1N)C(C)C)C(=O)N[C@@H](CO)C(=O)N[C@@H](Cc1ccc(O)c([N+](=O)[O-])c1)C(N)=O` [Abz-Val-Ala-Nle-Ser-Tyr(NO2)-NH2] (H-[2Abz]VA[Nle]S[Tyr(3-NO2)]-NH2), the “substrate or not substrate for Der pI” value is reported as “NM”.
Still for that read-out and setting: in the case of `CCCC[C@H](NC(=O)[C@H](C)NC(=O)[C@@H](NC(=O)c1ccccc1N)C(C)C)C(=O)N[C@@H](CO)C(=O)N[C@@H](Cc1ccc(O)cc1)C(=O)N[C@@H](CC(=O)O)C(N)=O` [Abz-Val-Ala-Nle-Ser-Tyr-Asp-NH2] (H-[2Abz]VA[Nle]SYD-NH2) it was “NM”; in that of `CCCC[C@H](NC(=O)[C@H](C)NC(=O)[C@@H](NC(=O)c1ccccc1N)C(C)C)C(=O)N[C@@H](CO)C(=O)NCCCCCC(=O)N[C@@H](CC(=O)O)C(N)=O` [Abz-Val-Ala-Nle-Ser-eAHA-Asp-NH2] (H-[2Abz]VA[Nle]S[Ahx]D-NH2), “NM”.
Still for that read-out and setting: as for `CC(C)CC[C@H](NC(=O)[C@H](CC1CCCCC1)NC(=O)[C@@H](NC(=O)c1ccccc1N)C(C)C)C(=O)N[C@@H](CO)C(=O)N[C@@H](Cc1ccc(O)c([N+](=O)[O-])c1)C(=O)N[C@@H](CC(=O)O)C(N)=O` [Abz-Val-Cha-hLeu-Ser-Tyr(NO2)-Asp-NH2] (H-[2Abz]V[Cha][hLeu]S[Tyr(3-NO2)]D-NH2), the entry is “NS”.
Same read-out and setting: in the case of `CC(C)CC[C@H](NC(=O)[C@@H](C)NC(=O)[C@@H](NC(=O)c1ccccc1N)C(C)C)C(=O)N[C@@H](CO)C(=O)N[C@@H](Cc1ccc(O)c([N+](=O)[O-])c1)C(=O)N[C@@H](CC(=O)O)C(N)=O` [Abz-Val-DAla-hLeu-Ser-Tyr(NO2)-Asp-NH2] (H-[2Abz]V[dA][hLeu]S[Tyr(3-NO2)]D-NH2) it was “NS”.
`CC(C)CC[C@H](NC(=O)[C@@H](CCCCN)NC(=O)[C@@H](NC(=O)c1ccccc1N)C(C)C)C(=O)N[C@@H](CO)C(=O)N[C@@H](Cc1ccc(O)c([N+](=O)[O-])c1)C(=O)N[C@@H](CC(=O)O)C(N)=O` [Abz-Val-DLys-hLeu-Ser-Tyr(NO2)-Asp-NH2] (H-[2Abz]V[dK][hLeu]S[Tyr(3-NO2)]D-NH2): the “substrate or not substrate for Der pI” value is “NS”.
Still for that read-out and setting: as for `CC(C)CC[C@H](NC(=O)[C@@H]1Cc2ccccc2CN1C(=O)[C@@H](NC(=O)c1ccccc1N)C(C)C)C(=O)N[C@@H](CO)C(=O)N[C@@H](Cc1ccc(O)c([N+](=O)[O-])c1)C(=O)N[C@@H](CC(=O)O)C(N)=O` [Abz-Val-Tic-hLeu-Ser-Tyr(NO2)-Asp-NH2] (H-[2Abz]V[Tic][hLeu]S[Tyr(3-NO2)]D-NH2), the entry is “NS”.
As to `CCCC[C@H](NC(=O)[C@H](C)NC(=O)[C@@H](NC(C)=O)C(C)C)C(=O)N[C@@H](CO)C(=O)N[C@@H](Cc1ccc(O)c([N+](=O)[O-])c1)C(=O)N[C@@H](CC(=O)O)C(N)=O` [Ac-Val-Ala-Nle-Ser-Tyr(NO2)-Asp-NH2] (Ac-VA[Nle]S[Tyr(3-NO2)]D-NH2), the “substrate or not substrate for Der pI” value was “NS”.
Still for that read-out and setting: in the case of `CCCC[C@H](NC(=O)[C@H](C)NC(=O)[C@@H](NC(C)=O)C(C)C)C(=O)N[C@@H](CO)C(=O)N[C@@H](Cc1ccc(O)c([N+](=O)[O-])c1)C(N)=O` [Ac-Val-Ala-Nle-Ser-Tyr(NO2)-NH2] (Ac-VA[Nle]S[Tyr(3-NO2)]-NH2) it was “NS”.
For `CCCC[C@H](NC(=O)[C@H](C)NC(=O)[C@@H](NC(=O)c1ccccc1C(=O)O)C(C)C)C(=O)N[C@@H](CO)C(=O)N[C@@H](Cc1ccc(O)c([N+](=O)[O-])c1)C(N)=O` [Bz(2-carboxy)-Val-Ala-Nle-Ser-Tyr(NO2)-NH2] ({Benzoyl(2-COOH)}-VA[Nle]S[Tyr(3-NO2)]-NH2), the “substrate or not substrate for Der pI” value is on record as “NM^a”.
Still for that read-out and setting: as for `CCCC[C@H](NC(=O)[C@H](C)NC(=O)[C@@H](NC(=O)c1ccccc1)C(C)C)C(=O)N[C@@H](CO)C(=O)N[C@@H](Cc1ccc(O)c([N+](=O)[O-])c1)C(N)=O` [Bz-Val-Ala-Nle-Ser-Tyr(NO2)-NH2] (Bz-VA[Nle]S[Tyr(3-NO2)]-NH2), the entry is “NM^a”.
Still for that read-out and setting: in the case of `CCCC[C@H](NC(=O)[C@H](C)N)C(=O)N[C@@H](CO)C(=O)N[C@@H](Cc1ccc(O)c([N+](=O)[O-])c1)C(=O)N[C@@H](CC(=O)O)C(N)=O` [H-Ala-Nle-Ser-Tyr(NO2)-Asp-NH2] (H-A[Nle]S[Tyr(3-NO2)]D-NH2) it was “NS”; in that of `CCCC[C@H](NC(=O)[C@H](C)NC(=O)[C@@H](N)C(C)C)C(=O)N[C@@H](CO)C(=O)N[C@@H](Cc1ccc(O)c([N+](=O)[O-])c1)C(N)=O` [H-Val-Ala-Nle-Ser-Tyr(NO2)-NH2] (H-VA[Nle]S[Tyr(3-NO2)]-NH2), “NS”; in that of `CCCC[C@H](NC(=O)[C@H](C)NC(=O)[C@@H](N)C(C)C)C(=O)N[C@@H](CO)C(=O)N[C@@H](Cc1ccc(O)c([N+](=O)[O-])c1)C(=O)N[C@@H](CC(=O)O)C(N)=O` [H-Val-Ala-Nle-Ser-TyrNO2-Asp-NH2] (H-VA[Nle]S[Tyr(3-NO2)]D-NH2), “NS”.
Same read-out and setting: in the case of `CCCC[C@H](NC(=O)[C@H](C)NC(=O)[C@@H](NC(=O)C(C)(C)C)C(C)C)C(=O)N[C@@H](CO)C(=O)N[C@@H](Cc1ccc(O)c([N+](=O)[O-])c1)C(N)=O` [Piv-Val-Ala-Nle-Ser-Tyr(NO2)-NH2] (Piv-VA[Nle]S[Tyr(3-NO2)]-NH2) it was “NM^a”; in that of “Abz-2.Naph-Val-Ala-Nle-Ser-Tyr(NO2)-Asp-NH2”, “NM”; in that of “Abz-3.Pyr-Val-Ala-Nle-Ser-Tyr(NO2)-Asp-NH2”, “NM”.
Take Chex-Val-Ala-Nle-Ser-Tyr(NO2)-NH2: the “substrate or not substrate for Der pI” value is listed as “NM^a”.
The same measure, in the same setting: as for n-Bu-Val-Ala-Nle-Ser-Tyr(NO2)-NH2, the entry is “NM^a”.

Values taken from patent publication US6528275B1, “Substrates and inhibitors of proteolytic enzymes” (Peptide Therapeutics Limited, priority 1996, dated 2003).
